Data as given in the supplement of paper PMC10307832.

Legend:
Assay in all cases: relative viability (nuclei count vs DMSO), 5 days (fraction); higher = more cells survive
[1] = compound: CN(C)CC1=CC(=CC=C1)N=C(C2=CC=CC=C2)C3=C(NC4=C3C=CC(=C4)C(=O)N(C)C)O + O=C(c1cc(Cc2n[nH]c(=O)c3ccccc23)ccc1F)N1CCN(C(=O)C2CC2)CC1 [Olaparib] (partner 8 µM)
In short: (§1)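 Lung cancer cell lines were seeded in 1536-well plates and dosed by pin tool the next day, with either a single drug or a fixed anchor-drug dose combined with five library-drug doses (not always all listed) spaced in √10 steps. Five days later, one step fixed the cells and stained their nuclei (final 0.05% Triton X-100, 1% formaldehyde, 1 ug/ml Hoechst), and nuclei were counted on 4× images. Relative viability is the nuclei count in treated wells divided by the count in vehicle wells, and each value is the median of duplicate plates.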

[2] = compound: CN(C)CC1=CC(=CC=C1)N=C(C2=CC=CC=C2)C3=C(NC4=C3C=CC(=C4)C(=O)N(C)C)O + Nc1nc2[nH]cc(CCc3ccc(C(=O)N[C@@H](CCC(=O)O)C(=O)O)cc3)c2c(=O)[nH]1 [Pemetrexed] (partner 0.2 µM)
In short: as §1

[3] = compound: CN(C)CC1=CC(=CC=C1)N=C(C2=CC=CC=C2)C3=C(NC4=C3C=CC(=C4)C(=O)N(C)C)O + O=C(CCCCCCC(=O)Nc1ccccc1)NO [Vorinostat] (partner 1 µM)
In short: as §1

[4] = compound: CN(C)CC1=CC(=CC=C1)N=C(C2=CC=CC=C2)C3=C(NC4=C3C=CC(=C4)C(=O)N(C)C)O + C[C@]1(O)C[C@@H](c2nc(-c3ccc4ccc(-c5ccccc5)nc4c3)c3c(N)nccn32)C1 [Linsitinib] (partner 1 µM)
In short: as §1

Cell Line	relative viability ([1]; first compound 0.08 µM)	relative viability ([1]; first compound 0.253 µM)	relative viability ([1]; first compound 0.8 µM)	relative viability ([1]; first compound 2.53 µM)	relative viability ([1]; first compound 8 µM)	relative viability ([2]; first compound 0.08 µM)	relative viability ([2]; first compound 0.253 µM)	relative viability ([2]; first compound 0.8 µM)	relative viability ([2]; first compound 2.53 µM)	relative viability ([2]; first compound 8 µM)	relative viability ([3]; first compound 0.08 µM)	relative viability ([3]; first compound 0.253 µM)	relative viability ([3]; first compound 0.8 µM)	relative viability ([3]; first compound 2.53 µM)	relative viability ([3]; first compound 8 µM)	relative viability ([4]; first compound 0.08 µM)	relative viability ([4]; first compound 0.253 µM)	relative viability ([4]; first compound 0.8 µM)	relative viability ([4]; first compound 2.53 µM)	relative viability ([4]; first compound 8 µM)
NCI-H1734	0.547	0.611	0.672	0.633	0.515	0.405	0.441	0.436	0.398	0.436	0.909	0.829	0.828	0.86	0.66	0.763	0.911	0.957	0.9	0.762
NCI-H1755	0.835	0.898	0.923	0.825	0.794	0.351	0.404	0.371	0.364	0.423	0.739	0.768	0.717	0.715	0.766	0.986	1.01	0.926	0.998	0.973
NCI-H1793	0.924	0.774	0.678	0.95	0.758	0.901	0.872	0.553	0.791	0.823	0.826	0.812	0.563	0.821	0.859	0.96	0.84	0.617	1.03	0.806
NCI-H1915	0.257	0.271	0.249	0.249	0.251	0.51	0.446	0.629	0.513	0.417	0.528	0.512	0.501	0.516	0.415	1.09	1.12	1.15	1.02	1.11
NCI-H1944	0.424	0.389	0.373	0.42	0.377	0.607	0.571	0.615	0.512	0.537	0.737	0.589	0.571	0.455	0.469	1.18	1.18	1.01	1.17	1.08
NCI-H1975	0.773	0.829	0.815	0.755	0.754	0.292	0.327	0.287	0.301	0.31	0.709	0.669	0.705	0.661	0.604	0.935	0.999	0.824	0.871	0.855
NCI-H1993	0.772	1.1	–	1.12	1.06	0.684	0.576	–	0.495	0.634	0.904	0.79	–	1.14	0.994	0.716	0.787	0.7	0.737	0.799
NCI-H2009	0.726	0.722	0.732	0.649	0.669	0.982	0.993	1.08	1.03	0.957	0.76	0.724	0.756	0.727	0.708	1.19	1.21	1.21	1.12	1.19
NCI-H2023	0.539	0.525	0.473	0.416	0.414	0.228	0.251	0.238	0.19	0.246	0.594	0.685	0.765	0.368	0.589	0.625	0.607	0.533	0.563	0.625
NCI-H2085	0.793	0.777	0.776	0.725	0.816	0.87	0.948	0.832	0.908	0.901	0.785	0.777	0.785	0.819	0.773	0.897	0.844	0.875	0.92	0.916
NCI-H2087	0.571	0.507	0.41	0.536	0.537	0.629	0.644	0.617	0.721	0.68	0.53	0.668	0.69	0.796	0.846	0.981	1.01	1.06	0.828	0.966
NCI-H2126	0.885	0.87	0.907	0.912	0.957	0.677	0.706	0.708	0.639	0.626	0.822	0.767	0.475	0.8	0.554	0.701	0.668	0.679	0.759	0.686
NCI-H2228	0.781	0.542	0.623	0.689	0.557	0.312	0.36	0.339	0.33	0.353	0.653	0.583	0.977	0.65	0.542	0.66	0.541	1.12	0.63	0.582
NCI-H2347	0.536	0.584	0.593	0.572	0.575	0.405	0.461	0.418	0.42	0.43	0.604	0.736	0.617	0.539	0.565	1.04	0.995	0.994	1.03	1.05
NCI-H2405	0.888	0.896	0.935	0.753	0.757	1.2	1.07	0.936	1.08	0.828	1.1	1.01	1.06	0.987	1.01	1.01	0.845	1.03	0.867	0.76
NCI-H3122	0.587	0.587	0.678	0.59	0.721	0.19	0.207	0.196	0.191	0.186	0.966	0.947	1.17	0.905	0.898	1.08	1.05	1.08	0.972	1.05
